Laboratory results published in the NIST ThermoML archive (doi:10.1021/je800664z).

Experiment: xn = mol fraction of the nth substance listed
Settings: for surface tension liquid-gas: Capillary rise; for mass density / viscosity: 101 kPa, Liquid

C1COCO1 [1,3-dioxolane] + CC(C)CC(C)(C)C
Settings	mass density, 288.15 K [kg/m3]	mass density, 298.15 K [kg/m3]	mass density, 308.15 K [kg/m3]	surface tension liquid-gas, 288.15 K [mN/m]	surface tension liquid-gas, 298.15 K [mN/m]	surface tension liquid-gas, 308.15 K [mN/m]	viscosity, 288.15 K [mPa·s]	viscosity, 298.15 K [mPa·s]	viscosity, 308.15 K [mPa·s]
x1 = 0.0501	704.03	695.41	686.72	19.37	18.57	17.58	0.529	0.48	0.431
x1 = 0.1	712.38	703.47	694.59	19.55	18.75	17.78	0.528	0.478	0.432
x1 = 0.15	721.22	712.11	703.08	19.7	18.92	17.93	0.527	0.478	0.432
x1 = 0.2	730.61	721.42	712.28	19.83	19.07	18.08	0.527	0.479	0.433
x1 = 0.25	740.66	731.37	722.16	19.97	19.2	18.23	0.528	0.479	0.433
x1 = 0.3	751.51	742.15	732.81	20.08	19.33	18.37	0.532	0.48	0.433
x1 = 0.35	763.25	753.76	744.31	20.22	19.47	18.53	0.536	0.483	0.434
x1 = 0.4	775.92	766.31	756.72	20.38	19.63	18.72	0.541	0.487	0.438
x1 = 0.45	789.66	779.89	770.11	20.57	19.82	18.93	0.547	0.492	0.442
x1 = 0.5	804.59	794.63	784.66	20.78	20.03	19.15	0.554	0.498	0.447
x1 = 0.55	820.88	810.69	800.5	21.02	20.3	19.42	0.561	0.504	0.453
x1 = 0.6	838.7	828.25	817.8	21.32	20.6	19.72	0.568	0.511	0.46
x1 = 0.65	858.32	847.56	836.8	21.63	20.93	20.05	0.576	0.519	0.467
x1 = 0.7	879.84	868.87	857.72	22	21.32	20.47	0.585	0.527	0.475
x1 = 0.75	903.63	892.42	880.96	22.43	21.8	20.95	0.595	0.536	0.484
x1 = 0.8	929.95	918.53	906.76	23	22.4	21.57	0.605	0.546	0.494
x1 = 0.85	959.26	947.66	935.7	23.85	23.32	22.6	0.617	0.557	0.505
x1 = 0.9	992.11	980.35	968.03	25.35	24.9	24.22	0.632	0.571	0.515
x1 = 0.95	1029.19	1017.39	1004.78	28.33	27.6	26.78	0.651	0.584	0.526
x1 = 1	1071.24	1059.29	1046.85	34.37	32.55	30.67	0.667	0.596	0.535
